In test [1] the target is T1, Pancreatic alpha-amylase (Sus scrofa) (UniProt P00690).
T1 sequence (whole entry): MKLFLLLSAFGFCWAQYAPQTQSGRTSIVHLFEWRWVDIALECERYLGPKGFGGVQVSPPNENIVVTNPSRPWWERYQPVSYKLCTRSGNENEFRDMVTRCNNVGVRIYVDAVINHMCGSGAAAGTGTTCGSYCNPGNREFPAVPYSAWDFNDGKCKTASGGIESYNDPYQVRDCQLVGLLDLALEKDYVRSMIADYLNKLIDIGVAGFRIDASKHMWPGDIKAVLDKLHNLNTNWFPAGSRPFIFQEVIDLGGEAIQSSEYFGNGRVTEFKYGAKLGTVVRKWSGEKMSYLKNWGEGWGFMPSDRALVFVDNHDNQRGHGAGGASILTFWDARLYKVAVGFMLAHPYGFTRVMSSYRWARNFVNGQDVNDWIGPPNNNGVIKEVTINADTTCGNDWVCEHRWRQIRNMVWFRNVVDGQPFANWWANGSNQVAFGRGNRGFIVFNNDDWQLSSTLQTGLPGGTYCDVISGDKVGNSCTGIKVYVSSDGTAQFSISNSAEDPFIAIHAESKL
Description: Non-competitive inhibition of porcine pancreatic alpha-amylase assessed as inhibitor-enzyme-substrate complex using starch as substrate by Lineweaver-Burk plot analysis

In test [2] the target is T1, Pancreatic alpha-amylase (Sus scrofa). The source holds these as a separate data set.
Description: Non-competitive inhibition of porcine pancreatic alpha-amylase assessed as inhibitor-enzyme complex using starch as substrate by Lineweaver-Burk plot analysis

The molecule `C[C@H]1[C@H](C)CC[C@]2(C(=O)O)CC[C@]3(C)C(=CC[C@@H]4[C@@]5(C)C[C@@H](O)[C@H](O)C(C)(C)[C@@H]5CC[C@]43C)[C@H]12` showed a Kis in test [1] of 25.6 µM. In test [2], the Kii was determined as 28.3 µM.

The values are drawn from ChEMBL document CHEMBL4043266, “Pentacyclic triterpenes as α-glucosidase and α-amylase inhibitors: Structure-activity relationships and the synergism with acarbose” (Bioorg Med Chem Lett, 2017).
